The source of these data is PubChem BioAssay AID342 (DTP/NCI, 2004).

Where “and” joins values, the source holds several entries; their conditions need not be identical. Identical values can stand only once.

In this test the test system is Swiss mice, Sarcoma 180 sc, mean tumor weight T/C. The test can be described thus: NCI In Vivo Anticancer Drug Screen. Data for tumor model Sarcoma 180 (subcutaneous) in Swiss mice. To be noted: endpoint: mean tumor weight, higher = larger tumour. The method, boiled down: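 Tumor-bearing mice, transplantable tumor; readout survival or tumor size; result = T/C, treated vs vehicle control.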

Where [1] appears, read: dose: 50.0 mg/kg/injection, schedule: Q01DX007 (ip), vehicle: carboxymethylcellulose (CMC).

`O=P(Oc1ccccc1)(OP(=O)(Oc1ccccc1)N(CCCl)CCCl)N(CCCl)CCCl` (configuration not stated): the T/C (in general, the ratio of treated to control) reads like this: (dose: 12.5 mg/kg/injection, schedule: Q#A X014 (ip), vehicle: other) 85 % of control; (dose: 25.0 mg/kg/injection, schedule: Q#A X014 (ip), vehicle: other) 76 % of control; (dose: 50.0 mg/kg/injection, schedule: Q#A X014 (ip), vehicle: other) 112 % of control.
Regarding `CN1CCC23c4c5ccc(O)c4OC2C(O)C=CC3C1C5` (configuration not stated), the T/C runs as follows: (dose: 62.0 mg/kg/injection, schedule: Q01DX007 (ip), vehicle: saline) 90 % of control; (dose: 125.0 mg/kg/injection, schedule: Q01DX007 (ip), vehicle: saline) 99 % of control; (dose: 250.0 mg/kg/injection, schedule: Q01DX007 (ip), vehicle: saline) 48 % of control.
`S=P(N1CC1)(N1CC1)N1CC1`: the T/C is, setting by setting: (dose: 0.43 mg/kg/injection, schedule: Q01DX007 (ip), vehicle: carboxymethylcellulose (CMC)) 91 % of control; (dose: 0.87 mg/kg/injection, schedule: Q01DX007 (ip), vehicle: carboxymethylcellulose (CMC)) 85 % of control; (dose: 1.75 mg/kg/injection, schedule: Q01DX007 (ip), vehicle: carboxymethylcellulose (CMC)) 104 % of control; (dose: 3.5 mg/kg/injection, schedule: Q01DX007 (ip), vehicle: carboxymethylcellulose (CMC)) 65 % of control; (dose: 218.5 mg/kg/injection, schedule: Q#A X014 (ip), vehicle: carboxymethylcellulose (CMC)) 108 % of control; (dose: 437.5 mg/kg/injection, schedule: Q#A X014 (ip), vehicle: carboxymethylcellulose (CMC)) 110 % of control. For the same compound, the T/C (dose: 875.0 mg/kg/injection, schedule: Q#A X014 (ip), vehicle: carboxymethylcellulose (CMC)) was 46 % of control.
On to `COc1ccc2c(c1)CC[C@@H]1[C@@H]2CC[C@]2(C)C[C@@](C)(O)C[C@@H]12`, for which the T/C (dose: 0.25 mg/kg/injection, schedule: Q#A X014 (sc), vehicle: steriod suspending solution) was 100 % of control; the T/C (dose: 1.25 mg/kg/injection, schedule: Q#A X014 (sc), vehicle: steriod suspending solution) is 84 % of control; the T/C (dose: 2.5 mg/kg/injection, schedule: Q#A X014 (ip), vehicle: methylcellulose (MC)) was 94 % of control; the T/C (dose: 10.0 mg/kg/injection, schedule: Q#A X014 (ip), vehicle: methylcellulose (MC)) was 98 % of control.
Take `CC(=O)Nc1cc2c(cc1Br)-c1ccccc1C2O` (configuration not stated): the T/C (dose: 48.0 mg/kg/injection, schedule: Q01DX007 (ip), vehicle: other) was 60 % of control; the T/C (dose: 73.0 mg/kg/injection, schedule: Q01DX007 (ip), vehicle: other) was 93 % of control; the T/C (dose: 130.0 mg/kg/injection, schedule: Q01DX007 (ip), vehicle: saline) is 40 % of control and 56 % of control; the T/C (dose: 195.0 mg/kg/injection, schedule: Q01DX007 (ip), vehicle: saline) is 107 % of control; the T/C (dose: 250.0 mg/kg/injection, schedule: Q01DX007 (ip), vehicle: other) was 36 % of control; the T/C (dose: 375.0 mg/kg/injection, schedule: Q01DX007 (ip), vehicle: other) was 46 % of control. Further, the T/C (dose: 560.0 mg/kg/injection, schedule: Q01DX007 (ip), vehicle: other) is 32 % of control.
Take `CN=C(N)c1ccc(N=C(N)c2ccc(C(N)=Nc3ccc(C(N)=NC)cc3)cc2)cc1`: the T/C was 124 % of control (dose: 12.5 mg/kg/injection, schedule: Q01DX007 (ip), vehicle: carboxymethylcellulose (CMC)); 86 % of control (dose: 25.0 mg/kg/injection, schedule: Q01DX007 (ip), vehicle: carboxymethylcellulose (CMC)); 80 % of control under setting [1].
Take `CCCCCCCCCCCCCC1=C(O)C(=O)C(CC2=C(O)C(=O)C(CCCCCCCCCCCCC)=C(O)C2=O)=C(O)C1=O`: the T/C was 66 % of control and 80 % of control under setting [1]; 73 % of control (dose: 100.0 mg/kg/injection, schedule: Q01DX007 (ip), vehicle: carboxymethylcellulose (CMC)); 101 % of control (dose: 200.0 mg/kg/injection, schedule: Q01DX007 (ip), vehicle: carboxymethylcellulose (CMC)).
Take `CCCCCCCCCCOP(N)(=O)OCCCCCCCCCC`: the T/C is 56 % of control and 64 % of control (dose: 27.75 mg/kg/injection, schedule: Q#A X014 (ip), vehicle: carboxymethylcellulose (CMC)); 60 % of control and 63 % of control (dose: 41.5 mg/kg/injection, schedule: Q#A X014 (ip), vehicle: carboxymethylcellulose (CMC)).
For the compound `CCOC(=O)C(Cc1ccccc1)c1ccc(Cl)cc1` (configuration not stated), the T/C by setting is: (dose: 62.5 mg/kg/injection, schedule: Q01DX007 (ip), vehicle: methylcellulose (MC)) 67 % of control; (dose: 125.0 mg/kg/injection, schedule: Q01DX007 (ip), vehicle: methylcellulose (MC)) 75 % of control; (dose: 250.0 mg/kg/injection, schedule: Q01DX007 (ip), vehicle: methylcellulose (MC)) 118 % of control.
On to `O=C1c2ccccc2C(=O)N1CCF`, for which the T/C is 90 % of control (dose: 4.0 mg/kg/injection, schedule: Q01DX007 (ip), vehicle: carboxymethylcellulose (CMC)) and 72 % of control (dose: 8.0 mg/kg/injection, schedule: Q01DX007 (ip), vehicle: carboxymethylcellulose (CMC)).
`O=S(=O)(O)C(Nc1ccccc1)c1ccccc1` (configuration not stated): the T/C is 80 % of control (dose: 24.0 mg/kg/injection, schedule: Q01DX007 (ip), vehicle: carboxymethylcellulose (CMC)); 94 % of control (dose: 36.0 mg/kg/injection, schedule: Q01DX007 (ip), vehicle: carboxymethylcellulose (CMC)); 92 % of control (dose: 54.0 mg/kg/injection, schedule: Q01DX007 (ip), vehicle: carboxymethylcellulose (CMC)); 93 % of control (dose: 81.0 mg/kg/injection, schedule: Q01DX007 (ip), vehicle: carboxymethylcellulose (CMC)); 113 % of control (dose: 162.0 mg/kg/injection, schedule: Q01DX007 (ip), vehicle: carboxymethylcellulose (CMC)); 84 % of control (dose: 324.0 mg/kg/injection, schedule: Q01DX007 (ip), vehicle: carboxymethylcellulose (CMC)).
In the case of `COC1=C(N(C)C)C(=O)c2ncccc2C1=O`, the T/C was 86 % of control (dose: 12.5 mg/kg/injection, schedule: Q01DX007 (ip), vehicle: water); 72 % of control (dose: 25.0 mg/kg/injection, schedule: Q01DX007 (ip), vehicle: water); 92 % of control (dose: 50.0 mg/kg/injection, schedule: Q01DX007 (ip), vehicle: water).
With `CCOC(=O)CCc1ccc(N=NN2CCCC2)cc1`, the T/C runs as follows: (dose: 225.0 mg/kg/injection, schedule: Q01DX007 (ip), vehicle: carboxymethylcellulose (CMC)) 110 % of control; (dose: 450.0 mg/kg/injection, schedule: Q01DX007 (ip), vehicle: carboxymethylcellulose (CMC)) 95 % of control.
Consider `O=c1[nH]c(=O)c2[nH]c(N=Nc3ccc(N(CCCl)CCCl)cc3)nc2[nH]1`, for which the T/C is, setting by setting: (dose: 6.25 mg/kg/injection, schedule: Q#A X014 (ip), vehicle: saline) 97 % of control; (dose: 12.5 mg/kg/injection, schedule: Q#A X014 (ip), vehicle: saline) 72 % of control; (dose: 25.0 mg/kg/injection, schedule: Q#A X014 (ip), vehicle: saline) 85 % of control; (dose: 50.0 mg/kg/injection, schedule: Q#A X014 (ip), vehicle: saline) 34 % of control and 49 % of control; (dose: 100.0 mg/kg/injection, schedule: Q#A X014 (ip), vehicle: saline) 36 % of control.
With `Cc1cc(=O)[nH]c(N=Nc2c(O)[nH]c3ccccc23)n1`, the T/C (dose: 222.0 mg/kg/injection, schedule: Q01DX007 (ip), vehicle: saline) was 58 % of control; the T/C (dose: 333.0 mg/kg/injection, schedule: Q01DX007 (ip), vehicle: saline) was 75 % of control; the T/C (dose: 500.0 mg/kg/injection, schedule: Q01DX007 (ip), vehicle: saline) is 43 % of control; the T/C (dose: 750.0 mg/kg/injection, schedule: Q01DX007 (ip), vehicle: saline) was 59 % of control.
On to `CCC(=O)NC`, for which the T/C is 41 % of control and 63 % of control (dose: 1000.0 mg/kg/injection, schedule: Q01DX007 (ip), vehicle: other); 14 % of control and 33 % of control (dose: 1250.0 mg/kg/injection, schedule: Q01DX007 (ip), vehicle: other).
With `CC1(C)O[C@@H]2C[C@H]3[C@@H]4CCC5=CC(=O)C=C[C@]5(C)[C@@]4(F)[C@@H](O)C[C@]3(C)[C@]2(C(=O)CO)O1`, the T/C is, setting by setting: (dose: 1.1 mg/kg/injection, schedule: Q#A X014 (sc), vehicle: steriod suspending solution) 41 % of control and 57 % of control; (dose: 1.65 mg/kg/injection, schedule: Q#A X014 (sc), vehicle: steriod suspending solution) 33 % of control and 34 % of control; (dose: 2.5 mg/kg/injection, schedule: Q#A X014 (sc), vehicle: steriod suspending solution) 20 % of control and 26 % of control; (dose: 3.75 mg/kg/injection, schedule: Q#A X014 (sc), vehicle: steriod suspending solution) 22 % of control.
On to `OC(CBr)C(O)C(O)C(O)CBr` (configuration not stated), for which the T/C was 106 % of control (dose: 25.0 mg/kg/injection, schedule: Q01DX007 (ip), vehicle: saline); 95 % of control and 117 % of control (dose: 50.0 mg/kg/injection, schedule: Q01DX007 (ip), vehicle: saline); 104 % of control and 107 % of control (dose: 100.0 mg/kg/injection, schedule: Q01DX007 (ip), vehicle: saline); 88 % of control (dose: 400.0 mg/kg/injection, schedule: Q01DX007 (ip), vehicle: saline).
